In PubChem BioAssay AID1963445 (Molecular Pharmacology Branch, DTP, NCI, 2024):
pIC50: −log10 of the molar value.

System: MCF7 complex spheroid growth, % test/control
Test: Anticancer human tumor MCF7 cell line growth inhibition [Asc];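 note: spheroids exposed to compounds for 7 days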;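 for viability, T/C: 100% = DMSO vehicle control wells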
Conditions: for pIC50: curve of first compound; for viability, T/C: stronger effect = lower value
How it was run: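 Tumor cells were grown as complex spheroids with human endothelial cells (HUVEC) and human mesenchymal stem cells as stroma. Agents were tested alone and in combination, in half-log steps down from the clinical Cmax, or from 10 microM where Cmax was unknown.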

Q: With `Cc1nc(N2CCC3(CC2)COC(C)C3N)c(CO)nc1Sc1ccnc(N)c1Cl` (centres undefined) + CCN1C(C(=O)NC23CCC(C(=O)O)(CC2)CC3)C(c2cccc(Cl)c2F)C2(C(=O)Nc3cc(Cl)ccc32)C12CCCCC2 as the compound, how does the pIC50 (second compound 0.00949 µM) read?
A: 5.86

Q: And the pIC50 (second compound 0.03 µM)?
A: 6.31

Q: What about the pIC50 (second compound 0.0949 µM) of the same compound?
A: > 8.02

Q: And the pIC50 (second compound 0.3 µM)?
A: > 8.02

Q: And the pIC50 (second compound 0.949 µM)?
A: > 8.02

Q: And the pIC50 (second compound 3 µM)?
A: > 8.02

Q: And the viability, T/C (second compound 0.00949 µM, first compound 0.00949 µM)?
A: 109%

Q: What about the viability, T/C (second compound 0.00949 µM, first compound 0.03 µM) of the same compound?
A: 115%

Q: What about the viability, T/C (second compound 0.00949 µM, first compound 0.0949 µM) of the same compound?
A: 94.4%

Q: And the viability, T/C (second compound 0.00949 µM, first compound 0.3 µM)?
A: 99.9%

Q: What about the viability, T/C (second compound 0.00949 µM, first compound 0.949 µM) of the same compound?
A: 66.8%

Q: And the viability, T/C (second compound 0.00949 µM, first compound 3 µM)?
A: 12.5%

Q: And the viability, T/C (second compound 0.03 µM, first compound 0.00949 µM)?
A: 86.4%

Q: What about the viability, T/C (second compound 0.03 µM, first compound 0.03 µM) of the same compound?
A: 79.1%

Q: And the viability, T/C (second compound 0.03 µM, first compound 0.0949 µM)?
A: 88.5%

Q: And the viability, T/C (second compound 0.03 µM, first compound 0.3 µM)?
A: 77.3%

Q: What about the viability, T/C (second compound 0.03 µM, first compound 0.949 µM) of the same compound?
A: 14%

Q: And the viability, T/C (second compound 0.03 µM, first compound 3 µM)?
A: 11.1%

Q: What about the viability, T/C (second compound 0.0949 µM, first compound 0.00949 µM) of the same compound?
A: 50.3%

Q: What about the viability, T/C (second compound 0.0949 µM, first compound 0.03 µM) of the same compound?
A: 41.9%

Q: And the viability, T/C (second compound 0.0949 µM, first compound 0.0949 µM)?
A: 43.7%

Q: And the viability, T/C (second compound 0.0949 µM, first compound 0.3 µM)?
A: 29.9%

Q: And the viability, T/C (second compound 0.0949 µM, first compound 0.949 µM)?
A: 9.42%

Q: What about the viability, T/C (second compound 0.0949 µM, first compound 3 µM) of the same compound?
A: 10.3%

Q: What about the viability, T/C (second compound 0.3 µM, first compound 0.00949 µM) of the same compound?
A: 26%

Q: What about the viability, T/C (second compound 0.3 µM, first compound 0.03 µM) of the same compound?
A: 22.8%

Q: And the viability, T/C (second compound 0.3 µM, first compound 0.0949 µM)?
A: 20.8%

Q: What about the viability, T/C (second compound 0.3 µM, first compound 0.3 µM) of the same compound?
A: 18.5%

Q: And the viability, T/C (second compound 0.3 µM, first compound 0.949 µM)?
A: 5.2%

Q: What about the viability, T/C (second compound 0.3 µM, first compound 3 µM) of the same compound?
A: 7.09%

Q: And the viability, T/C (second compound 0.949 µM, first compound 0.00949 µM)?
A: 13.7%

Q: And the viability, T/C (second compound 0.949 µM, first compound 0.03 µM)?
A: 13.6%

Q: And the viability, T/C (second compound 0.949 µM, first compound 0.0949 µM)?
A: 12.8%

Q: What about the viability, T/C (second compound 0.949 µM, first compound 0.3 µM) of the same compound?
A: 6.58%

Q: What about the viability, T/C (second compound 0.949 µM, first compound 0.949 µM) of the same compound?
A: 5.44%

Q: And the viability, T/C (second compound 0.949 µM, first compound 3 µM)?
A: 5.91%

Q: What about the viability, T/C (second compound 3 µM, first compound 0.00949 µM) of the same compound?
A: 11.4%

Q: What about the viability, T/C (second compound 3 µM, first compound 0.03 µM) of the same compound?
A: 8.37%

Q: What about the viability, T/C (second compound 3 µM, first compound 0.0949 µM) of the same compound?
A: 10.1%

Q: And the viability, T/C (second compound 3 µM, first compound 0.3 µM)?
A: 6.66%

Q: And the viability, T/C (second compound 3 µM, first compound 0.949 µM)?
A: 6.63%

Q: And the viability, T/C (second compound 3 µM, first compound 3 µM)?
A: 11.7%

Q: With `O=C(c1cc(Cc2n[nH]c(=O)c3ccccc23)ccc1F)N1CCN(C(=O)C2CC2)CC1` + CNC(C)C(=O)NC1CN(S(=O)(=O)c2cccc(S(=O)(=O)N3CCC4CCC(C(=O)NC(c5ccccc5)c5ccccc5)N4C(=O)C(NC(=O)C(C)NC)C3)c2)CCC2CCC(C(=O)NC(c3ccccc3)c3ccccc3)N2C1=O as the compound, how does the pIC50 (second compound 0.00316 µM) read?
A: > 7.50

Q: What about the pIC50 (second compound 0.01 µM) of the same compound?
A: > 7.50

Q: And the pIC50 (second compound 0.0316 µM)?
A: > 7.50

Q: What about the pIC50 (second compound 0.1 µM) of the same compound?
A: > 7.50

Q: And the pIC50 (second compound 0.316 µM)?
A: > 7.50

Q: What about the pIC50 (second compound 1 µM) of the same compound?
A: > 7.50

Q: And the viability, T/C (second compound 0.00316 µM, first compound 0.0316 µM)?
A: 10.6%

Q: What about the viability, T/C (second compound 0.00316 µM, first compound 0.1 µM) of the same compound?
A: 15.2%

Q: What about the viability, T/C (second compound 0.00316 µM, first compound 0.316 µM) of the same compound?
A: 8.86%

Q: What about the viability, T/C (second compound 0.00316 µM, first compound 1 µM) of the same compound?
A: 10.7%

Q: And the viability, T/C (second compound 0.00316 µM, first compound 3.16 µM)?
A: 10.2%

Q: What about the viability, T/C (second compound 0.00316 µM, first compound 10 µM) of the same compound?
A: 11.4%

Q: And the viability, T/C (second compound 0.01 µM, first compound 0.0316 µM)?
A: 16.2%

Q: What about the viability, T/C (second compound 0.01 µM, first compound 0.1 µM) of the same compound?
A: 14.4%

Q: What about the viability, T/C (second compound 0.01 µM, first compound 0.316 µM) of the same compound?
A: 14.5%

Q: What about the viability, T/C (second compound 0.01 µM, first compound 1 µM) of the same compound?
A: 15.3%

Q: What about the viability, T/C (second compound 0.01 µM, first compound 3.16 µM) of the same compound?
A: 16.9%

Q: What about the viability, T/C (second compound 0.01 µM, first compound 10 µM) of the same compound?
A: 14%

Q: And the viability, T/C (second compound 0.0316 µM, first compound 0.0316 µM)?
A: 13.8%

Q: What about the viability, T/C (second compound 0.0316 µM, first compound 0.1 µM) of the same compound?
A: 12%

Q: What about the viability, T/C (second compound 0.0316 µM, first compound 0.316 µM) of the same compound?
A: 11.5%

Q: And the viability, T/C (second compound 0.0316 µM, first compound 1 µM)?
A: 13.1%

Q: And the viability, T/C (second compound 0.0316 µM, first compound 3.16 µM)?
A: 11.4%

Q: And the viability, T/C (second compound 0.0316 µM, first compound 10 µM)?
A: 12.3%

Q: What about the viability, T/C (second compound 0.1 µM, first compound 0.0316 µM) of the same compound?
A: 13%

Q: And the viability, T/C (second compound 0.1 µM, first compound 0.1 µM)?
A: 13.8%

Q: What about the viability, T/C (second compound 0.1 µM, first compound 0.316 µM) of the same compound?
A: 11.8%

Q: And the viability, T/C (second compound 0.1 µM, first compound 1 µM)?
A: 13.8%

Q: And the viability, T/C (second compound 0.1 µM, first compound 3.16 µM)?
A: 12.1%

Q: What about the viability, T/C (second compound 0.1 µM, first compound 10 µM) of the same compound?
A: 11.4%

Q: What about the viability, T/C (second compound 0.316 µM, first compound 0.0316 µM) of the same compound?
A: 14.7%

Q: What about the viability, T/C (second compound 0.316 µM, first compound 0.1 µM) of the same compound?
A: 12.3%

Q: And the viability, T/C (second compound 0.316 µM, first compound 0.316 µM)?
A: 11.8%

Q: What about the viability, T/C (second compound 0.316 µM, first compound 1 µM) of the same compound?
A: 12.3%

Q: What about the viability, T/C (second compound 0.316 µM, first compound 3.16 µM) of the same compound?
A: 11.3%

Q: What about the viability, T/C (second compound 0.316 µM, first compound 10 µM) of the same compound?
A: 13.5%

Q: What about the viability, T/C (second compound 1 µM, first compound 0.0316 µM) of the same compound?
A: 11.1%

Q: And the viability, T/C (second compound 1 µM, first compound 0.1 µM)?
A: 10.9%

Q: What about the viability, T/C (second compound 1 µM, first compound 0.316 µM) of the same compound?
A: 13.7%

Q: What about the viability, T/C (second compound 1 µM, first compound 1 µM) of the same compound?
A: 10.9%

Q: What about the viability, T/C (second compound 1 µM, first compound 3.16 µM) of the same compound?
A: 11.9%

Q: What about the viability, T/C (second compound 1 µM, first compound 10 µM) of the same compound?
A: 14.3%
